Results on 27 compounds are retold here after ChEMBL document CHEMBL1165847, “Urotensin-II receptor modulators as potential drugs” (J Med Chem, 2010).

Activity calls are given as the source filed them. The rule behind the calls is not given here. Where a SMILES comes first, the peptide text is derived from it. Bridges are numbered along the chain shown (N, C = ends). [ ]: non-standard residue; d: D form. 1Nal = N[C@@H](Cc1cccc2ccccc12)C(=O)O; 2Nal = N[C@@H](Cc1ccc2ccccc2c1)C(=O)O

Experiment [1] addresses T1, Urotensin-2 receptor (Rattus norvegicus) (UniProt P49684).
T1 sequence (whole entry): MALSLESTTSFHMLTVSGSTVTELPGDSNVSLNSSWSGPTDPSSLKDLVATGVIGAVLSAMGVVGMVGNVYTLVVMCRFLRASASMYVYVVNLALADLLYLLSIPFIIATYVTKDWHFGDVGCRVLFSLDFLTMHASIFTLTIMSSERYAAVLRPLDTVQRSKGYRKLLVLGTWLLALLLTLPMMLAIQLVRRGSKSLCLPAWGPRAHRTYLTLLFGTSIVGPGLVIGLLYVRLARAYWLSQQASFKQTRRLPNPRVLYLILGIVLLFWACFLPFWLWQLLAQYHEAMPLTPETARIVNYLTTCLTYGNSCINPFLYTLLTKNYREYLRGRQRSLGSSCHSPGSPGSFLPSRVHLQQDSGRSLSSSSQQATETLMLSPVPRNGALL
In words: Antagonist activity at rat urotensin 2 receptor expressed in CHO cells assessed as calcium mobilization at 300 nM by FLIPR. It is filed as functional, cell-based. In general terms: Calcium assays in cells follow changes in intracellular calcium, usually with a dye or a luminescent sensor.

Experiment [2] addresses T2, Urotensin-2 receptor (Rattus norvegicus, UniProt P49684).
T2 sequence (P49684 whole entry): T1 sequence (whole entry)
In words: Displacement of [125I]U2 from rat urotensin 2 receptor expressed in CHO cells. The class given is cell-based. (In general: Displacement assays read how much labelled ligand stays bound in the presence of the test substance.)

Experiment [3] deals with T2, Urotensin-2 receptor. As to the kind of experiment: Agonist activity at rat urotensin 2 receptor expressed in CHO cells assessed as calcium mobilization by FLIPR. It is filed as functional, cell-based.
Experiment [4] deals with T1, Urotensin-2 receptor (Rattus norvegicus). As to the kind of experiment: Agonist activity at rat urotensin 2 receptor expressed in CHO cells assessed as calcium mobilization at 1000 nM by FLIPR. The class given is functional, cell-based.
Experiment [5] deals with Aorta. In words: Vasoconstriction activity in spontaneously […] rat thoracic aorta at 30 nM. The class given is functional.
The target in experiment [6] is T1, Urotensin-2 receptor (Rattus norvegicus). In words: Antagonist activity at rat urotensin 2 receptor expressed in CHO cells assessed as calcium mobilization at 10000 nM by FLIPR. The class given is functional, cell-based.

By Ki is commonly meant the dissociation constant of the complex between target and ligand, obtained from inhibition or displacement. A high value points to a looser hold on the target. For `CC(=O)N[C@H]1CSSC[C@@H](C(N)=O)NC(=O)[C@H](Cc2ccc(O)cc2)NC(=O)[C@H](CCCCN)NC(=O)[C@H](Cc2c[nH]c3ccccc23)NC(=O)[C@@H](Cc2ccccc2)NC1=O`, the result in experiment [1] was inactive. In experiment [2] (cho), this compound registered a Ki of less than 10000 nM.

The term EC50 denotes the concentration giving half of the maximal effect. As to `CC(=O)N[C@H]1CSSC[C@@H](C(N)=O)NC(=O)[C@H](Cc2ccc(O)cc2)NC(=O)[C@H](CCCCN)NC(=O)[C@@H](Cc2c[nH]c3ccccc23)NC(=O)[C@H](Cc2ccccc2)NC1=O`, in experiment [3], the EC50 was determined as 26 nM. Further, the Ki in experiment [2] stood at 610 nM.

Consider `CC(=O)N[C@H]1CSSC[C@@H](C(N)=O)NC(=O)[C@@H](Cc2ccc(O)cc2)NC(=O)[C@H](CCCCN)NC(=O)[C@H](Cc2c[nH]c3ccccc23)NC(=O)[C@H](Cc2ccccc2)NC1=O`, for which the EC50 in experiment [3] was determined as 37 nM. In experiment [2], this compound yielded a Ki of 1100 nM.

Take `CC(=O)N[C@H]1CSSC[C@@H](C(N)=O)NC(=O)[C@H](Cc2ccc(O)cc2)NC(=O)[C@@H](CCCCN)NC(=O)[C@H](Cc2c[nH]c3ccccc23)NC(=O)[C@H](Cc2ccccc2)NC1=O`: the result in experiment [1] was inactive. In experiment [2] (cho), the Ki was less than 10000 nM.

Turning to `CC(=O)N[C@H]1CSSC[C@@H](C(N)=O)NC(=O)[C@H](Cc2ccc(O)cc2)NC(=O)[C@H](CCCCN)NC(=O)[C@H](Cc2c[nH]c3ccccc23)NC(=O)[C@H](Cc2ccccc2)NC1=O`, the EC50 in experiment [3] was 1.6 nM. Further, in experiment [2], the affinity, expressed as Ki, was 15 nM.

Take `CC(=O)N[C@H]1CSSC[C@@H](C(N)=O)NC(=O)[C@H](C)NC(=O)[C@H](CCCCN)NC(=O)[C@H](Cc2c[nH]c3ccccc23)NC(=O)[C@H](Cc2ccccc2)NC1=O` (Ac-CFWKAC-NH2; disulfide 1-6): the Activity came to 50% in experiment [4] and 0% in experiment [5]. Also, the Ki in experiment [2] is greater than 10000 nM.

On to `CC(=O)N[C@H]1CSSC[C@@H](C(N)=O)NC(=O)[C@H](Cc2ccccc2)NC(=O)[C@H](CCCCN)NC(=O)[C@H](Cc2c[nH]c3ccccc23)NC(=O)[C@H](Cc2ccccc2)NC1=O` (Ac-CFWKFC-NH2; disulfide 1-6), for which the EC50 in experiment [3] turned out to be 2.1 nM. The Ki in experiment [2] came out at 17 nM. The same compound displayed an Activity in experiment [5] of 11%.

As to `CC(=O)N[C@H]1CSSC[C@@H](C(N)=O)NC(=O)[C@H](Cc2cccc3ccccc23)NC(=O)[C@H](CCCCN)NC(=O)[C@H](Cc2c[nH]c3ccccc23)NC(=O)[C@H](Cc2ccccc2)NC1=O` (Ac-CFWK[1Nal]C-NH2; disulfide 1-6), the EC50 in experiment [3] was determined as 1.5 nM. In addition, affinity in experiment [2] was put at a Ki of 4.1 nM.

`CC(=O)N[C@H]1CSSC[C@@H](C(N)=O)NC(=O)[C@H](Cc2ccc3ccccc3c2)NC(=O)[C@H](CCCCN)NC(=O)[C@H](Cc2c[nH]c3ccccc23)NC(=O)[C@H](Cc2ccccc2)NC1=O` (Ac-CFWK[2Nal]C-NH2; disulfide 1-6) displayed an Activity in experiment [5] of 43%.

For `CC(=O)N[C@H]1CSSC[C@@H](C(N)=O)NC(=O)[C@H](Cc2ccc(O)cc2)NC(=O)[C@H](CCCCN)NC(=O)[C@H](Cc2ccc3ccccc3c2)NC(=O)[C@H](Cc2ccccc2)NC1=O` (Ac-CF[2Nal]KYC-NH2; disulfide 1-6), the EC50 in experiment [3] was 31 nM. The same compound gave a Ki in experiment [2] of 200 nM.

Turning to `CC(=O)N[C@@H](Cc1c[nH]c2ccccc12)C(=O)N[C@@H](CCCCN)C(=O)N[C@@H](Cc1ccc(O)cc1)C(N)=O` (Ac-Trp-Lys-Tyr-NH2), the EC50 in experiment [3] was less than 500 nM. This compound also registered a Ki in experiment [2] (cho) of less than 10000 nM.

As for `CC(C)[C@H](NC(=O)[C@@H]1CSSC[C@H](NC(=O)[C@H](C)NC(=O)[C@H](C)N)C(=O)N[C@@H](Cc2ccccc2)C(=O)N[C@@H](Cc2c[nH]c3ccccc23)C(=O)N[C@@H](CCCCN)C(=O)N[C@@H](Cc2ccc(O)cc2)C(=O)N1)C(=O)O` (H-AACFWKYCV-OH; disulfide 3-8), the EC50 in experiment [3] was 0.6 nM.

With `CC(C)[C@H](NC(=O)[C@@H]1CSSC[C@H](NC(=O)[C@H](CC(=O)O)NC(=O)[C@H](C)N)C(=O)N[C@@H](C)C(=O)N[C@@H](Cc2c[nH]c3ccccc23)C(=O)N[C@@H](CCCCN)C(=O)N[C@@H](Cc2ccc(O)cc2)C(=O)N1)C(=O)O` (H-ADCAWKYCV-OH; disulfide 3-8), the EC50 in experiment [3] came out at 6.5 nM.

On to `CC(C)[C@H](NC(=O)[C@@H]1CSSC[C@H](NC(=O)[C@H](CC(=O)O)NC(=O)[C@H](C)N)C(=O)N[C@@H](Cc2ccccc2)C(=O)N[C@@H](C)C(=O)N[C@@H](CCCCN)C(=O)N[C@@H](Cc2ccc(O)cc2)C(=O)N1)C(=O)O` (H-ADCFAKYCV-OH; disulfide 3-8), for which the EC50 in experiment [3] is greater than 1000 nM.

On to `CC(C)[C@H](NC(=O)[C@@H]1CSSC[C@H](NC(=O)[C@H](CC(=O)O)NC(=O)[C@H](C)N)C(=O)N[C@@H](Cc2ccccc2)C(=O)N[C@@H](Cc2c[nH]c3ccccc23)C(=O)N[C@@H](C)C(=O)N[C@@H](Cc2ccc(O)cc2)C(=O)N1)C(=O)O` (H-ADCFWAYCV-OH; disulfide 3-8), for which, in experiment [3], the EC50 was greater than 1000 nM.

With `C[C@H](N)C(=O)N[C@@H](CC(=O)O)C(=O)N[C@H]1CSSC[C@@H](C(=O)N[C@@H](C)C(=O)O)NC(=O)[C@H](Cc2ccc(O)cc2)NC(=O)[C@H](CCCCN)NC(=O)[C@H](Cc2c[nH]c3ccccc23)NC(=O)[C@H](Cc2ccccc2)NC1=O` (H-ADCFWKYCA-OH; disulfide 3-8), in experiment [3], the EC50 was determined as 0.4 nM.

`CC(C)[C@H](NC(=O)[C@@H]1CSSC[C@H](NC(=O)[C@H](CC(=O)O)NC(=O)[C@H](C)N)C(=O)N[C@@H](Cc2ccccc2)C(=O)N[C@@H](Cc2c[nH]c3ccccc23)C(=O)N[C@@H](CCCCN)C(=O)N[C@@H](Cc2ccc(O)cc2)C(=O)N1)C(=O)O` (H-ADCFWKYCV-OH; disulfide 3-8): the EC50 in experiment [3] amounted to 0.16 nM.

`CC(C)[C@H](NC(=O)[C@@H]1CSSC[C@H](NC(=O)[C@H](CC(=O)O)NC(=O)[C@H](C)NC(=O)[C@@H](NC(=O)CNC(=O)[C@H](C)N)[C@@H](C)O)C(=O)N[C@@H](Cc2ccccc2)C(=O)N[C@@H](Cc2c[nH]c3ccccc23)C(=O)N[C@@H](CCCCN)C(=O)N[C@@H](Cc2ccc(O)cc2)C(=O)N1)C(=O)O` (H-AGTADCFWKYCV-OH; disulfide 6-11): in experiment [3], the EC50 came out at 0.17 nM. Moreover, in experiment [2], the Ki stood at 0.19 nM. Besides, in experiment [5], the Activity is on record as 91%.

Consider `CC(C)[C@H](NC(=O)[C@@H]1CSSC[C@H](NC(=O)[C@H](CC(=O)O)NC(=O)[C@H](C)NC(=O)[C@@H](NC(=O)CNC(=O)[C@H](C)N)[C@@H](C)O)C(=O)N[C@@H](Cc2ccccc2)C(=O)N[C@@H](Cc2c[nH]c3ccccc23)C(=O)N[C@@H](CCCCN)C(=O)N[C@@H](Cc2ccc3ccccc3c2)C(=O)N1)C(=O)O` (H-AGTADCFWK[2Nal]CV-OH; disulfide 6-11), for which the EC50 in experiment [3] stood at 0.34 nM. The Ki in experiment [2] amounted to 0.02 nM.

Consider `CC(C)[C@H](NC(=O)[C@@H]1CSSC[C@H](NC(=O)[C@H](CC(N)=O)NC(=O)[C@H](C)N)C(=O)N[C@@H](Cc2ccccc2)C(=O)N[C@@H](C)C(=O)N[C@@H](CCCCN)C(=O)N[C@@H](Cc2ccc(O)cc2)C(=O)N1)C(=O)O` (H-ANCFAKYCV-OH; disulfide 3-8), for which the result in experiment [6] was inactive.

Consider `CC(C)[C@H](NC(=O)[C@@H]1CSSC[C@H](NC(=O)[C@H](CC(N)=O)NC(=O)[C@H](C)N)C(=O)N[C@@H](Cc2ccccc2)C(=O)N[C@@H](Cc2c[nH]c3ccccc23)C(=O)N[C@@H](C)C(=O)N[C@@H](Cc2ccc(O)cc2)C(=O)N1)C(=O)O` (H-ANCFWAYCV-OH; disulfide 3-8), for which, in experiment [6], the result was inactive.

As for `NCCCC[C@@H]1NC(=O)[C@H](Cc2c[nH]c3ccccc23)NC(=O)[C@H](Cc2ccccc2)NC(=O)[C@@H](N)CSSC[C@@H](C(=O)O)NC(=O)[C@H](Cc2ccc(O)cc2)NC1=O` (H-CFWKYC-OH; disulfide 1-6), the EC50 in experiment [3] was determined as 1.6 nM.

Take `CC(C)[C@H](NC(=O)[C@@H]1CSSC[C@H](N)C(=O)N[C@@H](Cc2ccccc2)C(=O)N[C@@H](Cc2c[nH]c3ccccc23)C(=O)N[C@@H](CCCCN)C(=O)N[C@@H](Cc2ccc(O)cc2)C(=O)N1)C(=O)O` (H-CFWKYCV-OH; disulfide 1-6): in experiment [3], the EC50 amounted to 0.76 nM.

In the case of `CC(C)[C@H](NC(=O)[C@@H]1CSSC[C@H](NC(=O)[C@@H](N)CC(=O)O)C(=O)N[C@@H](Cc2ccccc2)C(=O)N[C@@H](Cc2c[nH]c3ccccc23)C(=O)N[C@@H](CCCCN)C(=O)N[C@@H](Cc2ccc(O)cc2)C(=O)N1)C(=O)O` (H-DCFWKYCV-OH; disulfide 2-7), in experiment [3], the EC50 is 0.1 nM.

With `CC(C)[C@H](NC(=O)[C@@H]1CSSC[C@H](NC(=O)[C@H](CC(=O)O)NC(=O)[C@H](C)NC(=O)[C@@H](NC(=O)CN)[C@@H](C)O)C(=O)N[C@@H](Cc2ccccc2)C(=O)N[C@@H](Cc2c[nH]c3ccccc23)C(=O)N[C@@H](CCCCN)C(=O)N[C@@H](Cc2ccc(O)cc2)C(=O)N1)C(=O)O` (H-GTADCFWKYCV-OH; disulfide 5-10), in experiment [3], the EC50 worked out at 0.29 nM.

On to `CC(C)[C@H](NC(=O)[C@@H]1CSSC[C@H](NC(=O)[C@H](CC(=O)O)NC(=O)[C@H](C)NC(=O)[C@@H](N)[C@@H](C)O)C(=O)N[C@@H](Cc2ccccc2)C(=O)N[C@@H](Cc2c[nH]c3ccccc23)C(=O)N[C@@H](CCCCN)C(=O)N[C@@H](Cc2ccc(O)cc2)C(=O)N1)C(=O)O` (H-TADCFWKYCV-OH; disulfide 4-9), for which, in experiment [3], the EC50 is 0.11 nM.

For the compound Ac-SFWKYS-NH2, the EC50 in experiment [3] is less than 500 nM. Also, in experiment [1], the result was inactive. The Activity in experiment [4] is 50%. The compound also came in with a Ki in experiment [2] (cho) of less than 10000 nM.
